This is an account of results in ChEMBL document CHEMBL5463729, “Data for DCP probe BAY 1753011” (2023).

One assay addresses Vasopressin V2 receptor (Homo sapiens, UniProt P30518). The assay is described as follows: Inhibition of Vasopressin V2 at 10 µM in the Eurofins-Panlabs radioligand binding assay (Eurofins_assay_287610). To be noted: Compound concentration 10.0 uM. Details: ligand concentration 4 nM; call rule not given here.
Assay [1] concerns the target Sodium-dependent dopamine transporter (Homo sapiens) (UniProt Q01959). To be noted: Compound concentration 10.0 uM.
Assay [2] has as its target Fibroblast growth factor receptor 3 (Homo sapiens) (UniProt P22607). In words: Inhibition of FGFR3(h) at 10.0 µM in the Eurofins Kinase panel. The note with it: Compound concentration 10.0 uM.
For assay [3], the target named is Ephrin type-B receptor 4 (Homo sapiens) (UniProt P54760). In words: Inhibition of EphB4(h) at 10.0 µM in the Eurofins Kinase panel. To be noted: Compound concentration 10.0 uM.
The species entered for assay [4] is Homo sapiens. The note with it: Compound concentration 10.0 uM.
The target of assay [5] is Tyrosine-protein kinase ABL1 (Homo sapiens) (UniProt P00519). In words: Inhibition of Abl(h) at 10.0 µM in the Eurofins Kinase panel. To be noted: Compound concentration 10.0 uM.
The target of assay [6] is Platelet-derived growth factor receptor alpha (Homo sapiens) (UniProt P16234). In words: Inhibition of PDGFRalpha(h) at 10.0 µM in the Eurofins Kinase panel. To be noted: Compound concentration 10.0 uM.
Assay [7] addresses Serine/threonine-protein kinase Sgk2 (Homo sapiens) (UniProt Q9HBY8). The assay is described as follows: Inhibition of SGK2(h) at 10.0 µM in the Eurofins Kinase panel. To be noted: Compound concentration 10.0 uM.
Assay [8] deals with [Pyruvate dehydrogenase (acetyl-transferring)] kinase isozyme 2, mitochondrial (Homo sapiens) (UniProt Q15119). In words: Inhibition of PDHK2(h) at 10.0 µM in the Eurofins Kinase panel. To be noted: Compound concentration 10.0 uM.
Assay [9] concerns the target Type-1 angiotensin II receptor (Homo sapiens) (UniProt P30556). The note with it: Compound concentration 10.0 uM.
In assay [10] the target is Voltage-dependent N-type calcium channel subunit alpha-1B (Homo sapiens) (UniProt Q00975). In words: Inhibition of Calcium Channel N-Type at 10 µM in the Eurofins-Panlabs radioligand binding assay (Eurofins_assay_216000). To be noted: Rattus norvegicus; Compound concentration 10.0 uM.
The species named for assay [11] is Homo sapiens. The assay is described as follows: Inhibition of Tumor Necrosis Factor (TNF), Non-Selective at 10 µM in the Eurofins-Panlabs radioligand binding assay (Eurofins_assay_286510). To be noted: Compound concentration 10.0 uM.
In assay [12] the target is Serine/threonine-protein kinase Chk2 (Homo sapiens) (UniProt O96017). In words: Inhibition of CHK2(h) at 10.0 µM in the Eurofins Kinase panel. To be noted: Compound concentration 10.0 uM.
The target of assay [13] is Substance-P receptor (Homo sapiens) (UniProt P25103). The assay is described as follows: Inhibition of Tachykinin NK1 at 10 µM in the Eurofins-Panlabs radioligand binding assay (Eurofins_assay_255520). The note with it: Compound concentration 10.0 uM. Details: ligand concentration 0.8 nM.
Assay [14] deals with Cathepsin G (Homo sapiens) (UniProt P08311). In words: Inhibition of Peptidase, CTSG (Cathepsin G) at 10 µM in the Eurofins-Panlabs enzyme assay (Eurofins_assay_112510). Also noted: substrate with concentration. To be noted: Compound concentration 10.0 uM.
Assay [15] addresses Polyunsaturated fatty acid lipoxygenase ALOX15 (Homo sapiens) (UniProt P16050). In words: Inhibition of Lipoxygenase 15-LO at 10 µM in the Eurofins-Panlabs enzyme assay (Eurofins_assay_138000). The note with it: Oryctolagus cuniculus; Compound concentration 10.0 uM.
Assay [16] addresses Mitogen-activated protein kinase 3 (Homo sapiens) (UniProt P27361). In words: Inhibition of Protein Serine/Threonine Kinase, MAPK3 (ERK1) at 10 µM in the Eurofins-Panlabs enzyme assay (Eurofins_assay_171000). The note with it: Compound concentration 10.0 uM.
Assay [17] addresses C-X-C chemokine receptor type 2 (Homo sapiens) (UniProt P25025). The assay is described as follows: Inhibition of Chemokine CXCR2 (IL-8RB) at 10 µM in the Eurofins-Panlabs radioligand binding assay (Eurofins_assay_244500). The note with it: Compound concentration 10.0 uM.
Assay [18] deals with Mitogen-activated protein kinase 1 (Homo sapiens) (UniProt P28482). The assay is described as follows: Inhibition of Protein Serine/Threonine Kinase, MAPK1 (ERK2) at 10 µM in the Eurofins-Panlabs enzyme assay (Eurofins_assay_171120). Details: substrate with concentration. The note with it: Compound concentration 10.0 uM.
In assay [19] the target is Serine/threonine-protein kinase BRSK2 (Homo sapiens) (UniProt Q8IWQ3). In words: Inhibition of BrSK2(h) at 10.0 µM in the Eurofins Kinase panel. The note with it: Compound concentration 10.0 uM.
Assay [20] deals with AP2-associated protein kinase 1 (Homo sapiens) (UniProt Q2M2I8). The assay is described as follows: Inhibition of AAK1(h) at 10.0 µM in the Eurofins Kinase panel. The note with it: Compound concentration 10.0 uM.
For assay [21], the target named is GABA-A receptor; anion channel. In words: GPCRScan assay: inhibition of GABAA/BZP. The format is protein-complex assay, Rattus norvegicus. Details: radioligand conc. used [nm] 0.6 – 4.0, parental cells brain tissue.
In assay [22] the target is Sigma non-opioid intracellular receptor 1 (Homo sapiens) (UniProt Q99720). In words: Inhibition of Sigma 1 at 10 µM in the Eurofins-Panlabs radioligand binding assay (Eurofins_assay_278110). Details: ligand concentration 8 nM. To be noted: Compound concentration 10.0 uM.
Assay [23] has as its target Adenosine Transporter (Cavia porcellus) (UniProt H0V4R7+H0UUG1+H0V3Z5). In words: Inhibition of Transporter, Adenosine at compound concentration of 10.0 uM in the Eurofins-Panlabs radioligand binding assay (Eurofins_assay_202000). To be noted: Compound concentration 10.0 uM. Details: ligand concentration 0.5 nM, non-specific ligand with concentration 5 uM Nitrobenzylthioinosine, incubation time 30 min, incubation temperature 25 C. The format is protein assay.

The target of assay [24] is T1, Alpha-1A adrenergic receptor (Homo sapiens) (UniProt P35348).
T1 sequence (whole entry): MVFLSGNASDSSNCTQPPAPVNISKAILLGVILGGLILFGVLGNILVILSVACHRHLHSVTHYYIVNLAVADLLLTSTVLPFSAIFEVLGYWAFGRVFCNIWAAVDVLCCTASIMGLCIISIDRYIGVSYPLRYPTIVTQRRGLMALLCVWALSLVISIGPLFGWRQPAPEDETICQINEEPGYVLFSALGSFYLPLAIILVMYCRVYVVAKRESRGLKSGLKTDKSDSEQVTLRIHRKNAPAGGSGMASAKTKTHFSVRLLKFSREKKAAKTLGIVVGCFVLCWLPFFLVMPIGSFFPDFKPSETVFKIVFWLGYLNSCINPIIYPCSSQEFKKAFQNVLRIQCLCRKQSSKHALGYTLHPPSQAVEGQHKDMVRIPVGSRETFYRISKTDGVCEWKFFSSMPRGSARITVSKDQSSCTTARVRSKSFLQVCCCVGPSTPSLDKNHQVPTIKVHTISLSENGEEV
The note with it: Rattus norvegicus; Compound concentration 10.0 uM.

Assay [25] is described as follows: Inhibition of Platelet-Derived Growth Factor (PDGF) at 10 µM in the Eurofins-Panlabs radioligand binding assay (Eurofins_assay_265200). To be noted: Compound concentration 10 uM; Detection method Radioligand Binding; Incubation temperature 25 °C; Incubation time 45 min; Ligand [3H]PDGF; Ligand concentration 0.02 nM; Non-specific ligand with concentration 10 nM PDGF; Source of protein Swiss mouse 3T3 embryo cells.

Assay [26] concerns the target Mitogen-activated protein kinase kinase kinase 20 (Homo sapiens) (UniProt Q9NYL2). The assay is described as follows: Inhibition of ZAK(h) at 10.0 µM in the Eurofins Kinase panel. The note with it: Compound concentration 10.0 uM.
The target in assay [27] is Thromboxane-A synthase (Homo sapiens) (UniProt P24557). The assay is described as follows: Inhibition of Thromboxane Synthase at compound concentration of 10.0 uM in the Eurofins-Panlabs enzyme assay (Eurofins_assay_194020). Also noted: substrate with concentration. The note with it: Compound concentration 10.0 uM.

Chain of Sodium-dependent dopamine transporter (Homo sapiens) (Q01959 whole entry): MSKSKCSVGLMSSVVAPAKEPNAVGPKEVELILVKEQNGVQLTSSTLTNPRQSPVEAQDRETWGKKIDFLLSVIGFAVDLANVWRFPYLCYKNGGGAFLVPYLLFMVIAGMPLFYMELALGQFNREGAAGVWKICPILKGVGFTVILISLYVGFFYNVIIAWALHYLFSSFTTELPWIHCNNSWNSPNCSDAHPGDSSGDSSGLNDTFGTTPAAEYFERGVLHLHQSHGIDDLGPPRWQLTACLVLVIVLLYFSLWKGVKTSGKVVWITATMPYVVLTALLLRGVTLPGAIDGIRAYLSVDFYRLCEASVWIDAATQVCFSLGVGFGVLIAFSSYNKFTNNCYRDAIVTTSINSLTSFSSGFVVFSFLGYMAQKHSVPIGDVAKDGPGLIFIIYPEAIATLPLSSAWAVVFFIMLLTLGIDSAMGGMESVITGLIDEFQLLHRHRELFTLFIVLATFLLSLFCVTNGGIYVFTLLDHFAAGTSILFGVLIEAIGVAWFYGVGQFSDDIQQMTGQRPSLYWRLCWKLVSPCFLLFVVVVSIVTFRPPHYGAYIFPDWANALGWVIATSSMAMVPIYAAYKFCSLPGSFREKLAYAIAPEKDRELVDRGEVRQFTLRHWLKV
Chain of Serine/threonine-protein kinase Chk2 (Homo sapiens) (O96017 whole entry): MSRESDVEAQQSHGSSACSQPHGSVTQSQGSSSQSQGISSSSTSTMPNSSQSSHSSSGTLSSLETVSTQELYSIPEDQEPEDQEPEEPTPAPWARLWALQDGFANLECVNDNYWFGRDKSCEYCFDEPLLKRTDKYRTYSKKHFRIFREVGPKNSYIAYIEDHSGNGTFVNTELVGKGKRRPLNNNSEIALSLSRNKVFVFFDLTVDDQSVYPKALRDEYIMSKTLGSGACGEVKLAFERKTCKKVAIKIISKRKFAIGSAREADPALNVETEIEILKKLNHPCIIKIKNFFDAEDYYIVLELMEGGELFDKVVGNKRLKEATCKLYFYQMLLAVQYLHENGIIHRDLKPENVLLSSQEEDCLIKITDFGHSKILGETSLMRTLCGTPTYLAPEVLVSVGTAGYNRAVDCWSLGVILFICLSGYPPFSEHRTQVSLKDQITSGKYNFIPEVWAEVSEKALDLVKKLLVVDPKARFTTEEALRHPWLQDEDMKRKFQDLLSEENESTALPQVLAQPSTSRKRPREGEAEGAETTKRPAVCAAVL
Chain of Vasopressin V2 receptor (P30518 whole entry): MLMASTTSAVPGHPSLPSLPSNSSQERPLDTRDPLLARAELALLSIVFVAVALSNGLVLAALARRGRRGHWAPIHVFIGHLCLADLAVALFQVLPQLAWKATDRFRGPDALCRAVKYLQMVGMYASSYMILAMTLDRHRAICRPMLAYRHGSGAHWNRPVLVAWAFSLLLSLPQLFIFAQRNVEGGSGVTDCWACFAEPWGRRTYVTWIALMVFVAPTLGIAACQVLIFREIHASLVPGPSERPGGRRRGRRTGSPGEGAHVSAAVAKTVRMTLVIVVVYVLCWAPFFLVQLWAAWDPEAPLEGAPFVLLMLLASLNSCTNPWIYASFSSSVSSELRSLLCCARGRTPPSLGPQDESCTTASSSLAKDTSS
Chain of C-X-C chemokine receptor type 2 (Homo sapiens) (P25025 whole entry): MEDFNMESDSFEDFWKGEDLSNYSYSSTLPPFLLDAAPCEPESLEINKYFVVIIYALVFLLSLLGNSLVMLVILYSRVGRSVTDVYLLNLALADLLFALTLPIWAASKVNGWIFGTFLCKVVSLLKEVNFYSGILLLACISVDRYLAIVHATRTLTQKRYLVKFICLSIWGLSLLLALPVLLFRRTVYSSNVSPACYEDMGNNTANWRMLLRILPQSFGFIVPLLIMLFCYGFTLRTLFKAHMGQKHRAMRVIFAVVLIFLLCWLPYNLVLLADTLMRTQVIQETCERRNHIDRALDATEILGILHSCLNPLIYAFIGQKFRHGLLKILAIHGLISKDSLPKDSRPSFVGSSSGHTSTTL
Chain of Ephrin type-B receptor 4 (Homo sapiens) (P54760 whole entry): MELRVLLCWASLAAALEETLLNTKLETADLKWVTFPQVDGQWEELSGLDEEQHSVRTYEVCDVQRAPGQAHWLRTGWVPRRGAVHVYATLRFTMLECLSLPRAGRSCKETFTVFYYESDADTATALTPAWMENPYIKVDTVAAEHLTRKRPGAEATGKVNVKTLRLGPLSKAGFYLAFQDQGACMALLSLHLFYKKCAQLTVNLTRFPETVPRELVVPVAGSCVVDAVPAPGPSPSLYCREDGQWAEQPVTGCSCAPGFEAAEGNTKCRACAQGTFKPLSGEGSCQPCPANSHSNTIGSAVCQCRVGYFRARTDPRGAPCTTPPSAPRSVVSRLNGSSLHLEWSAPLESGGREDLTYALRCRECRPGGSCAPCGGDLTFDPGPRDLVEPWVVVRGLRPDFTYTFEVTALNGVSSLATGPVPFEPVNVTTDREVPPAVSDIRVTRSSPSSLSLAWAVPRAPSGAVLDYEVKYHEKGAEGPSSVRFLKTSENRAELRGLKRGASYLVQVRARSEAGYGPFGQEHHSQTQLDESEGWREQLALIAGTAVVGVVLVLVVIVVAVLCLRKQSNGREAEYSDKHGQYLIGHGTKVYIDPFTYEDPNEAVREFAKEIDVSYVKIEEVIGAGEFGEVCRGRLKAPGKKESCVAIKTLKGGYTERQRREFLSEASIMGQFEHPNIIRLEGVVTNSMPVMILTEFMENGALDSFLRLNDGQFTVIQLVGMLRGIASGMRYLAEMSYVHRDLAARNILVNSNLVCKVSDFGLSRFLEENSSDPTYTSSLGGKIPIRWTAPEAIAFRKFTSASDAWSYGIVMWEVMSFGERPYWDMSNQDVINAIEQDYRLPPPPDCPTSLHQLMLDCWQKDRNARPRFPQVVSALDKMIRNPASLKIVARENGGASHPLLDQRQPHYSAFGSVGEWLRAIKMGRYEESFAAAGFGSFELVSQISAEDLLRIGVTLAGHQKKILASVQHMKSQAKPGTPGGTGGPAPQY
Chain of Tyrosine-protein kinase ABL1 (Homo sapiens) (P00519 whole entry): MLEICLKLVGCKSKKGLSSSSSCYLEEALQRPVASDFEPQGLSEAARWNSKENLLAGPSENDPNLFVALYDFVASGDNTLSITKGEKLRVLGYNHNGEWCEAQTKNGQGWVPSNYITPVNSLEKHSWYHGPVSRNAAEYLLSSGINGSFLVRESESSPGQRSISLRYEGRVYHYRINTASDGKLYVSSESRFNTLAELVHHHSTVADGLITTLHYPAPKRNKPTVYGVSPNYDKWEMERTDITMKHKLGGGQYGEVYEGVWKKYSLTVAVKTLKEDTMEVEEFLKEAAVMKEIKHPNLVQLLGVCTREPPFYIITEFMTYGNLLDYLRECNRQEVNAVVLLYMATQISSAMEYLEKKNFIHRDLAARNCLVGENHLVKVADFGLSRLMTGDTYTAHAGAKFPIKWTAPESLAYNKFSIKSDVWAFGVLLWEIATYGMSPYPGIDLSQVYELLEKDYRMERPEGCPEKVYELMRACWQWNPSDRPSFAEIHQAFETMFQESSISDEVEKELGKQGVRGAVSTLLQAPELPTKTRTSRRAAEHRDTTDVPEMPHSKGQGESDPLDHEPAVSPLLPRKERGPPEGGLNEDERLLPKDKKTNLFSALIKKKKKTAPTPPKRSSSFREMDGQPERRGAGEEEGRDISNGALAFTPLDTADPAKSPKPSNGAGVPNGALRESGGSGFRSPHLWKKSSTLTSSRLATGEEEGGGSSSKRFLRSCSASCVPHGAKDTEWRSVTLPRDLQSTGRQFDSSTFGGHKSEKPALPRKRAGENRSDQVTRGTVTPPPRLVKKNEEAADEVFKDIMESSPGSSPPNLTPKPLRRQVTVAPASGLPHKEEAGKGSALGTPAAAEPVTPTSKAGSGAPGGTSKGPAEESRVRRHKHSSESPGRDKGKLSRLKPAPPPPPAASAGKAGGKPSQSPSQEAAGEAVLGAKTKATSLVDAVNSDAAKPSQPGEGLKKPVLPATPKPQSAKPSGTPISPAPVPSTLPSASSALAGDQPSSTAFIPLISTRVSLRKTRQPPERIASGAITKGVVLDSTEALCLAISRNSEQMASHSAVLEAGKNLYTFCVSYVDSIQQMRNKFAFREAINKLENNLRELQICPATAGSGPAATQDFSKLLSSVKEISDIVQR
Chain of Cathepsin G (Homo sapiens) (P08311 whole entry): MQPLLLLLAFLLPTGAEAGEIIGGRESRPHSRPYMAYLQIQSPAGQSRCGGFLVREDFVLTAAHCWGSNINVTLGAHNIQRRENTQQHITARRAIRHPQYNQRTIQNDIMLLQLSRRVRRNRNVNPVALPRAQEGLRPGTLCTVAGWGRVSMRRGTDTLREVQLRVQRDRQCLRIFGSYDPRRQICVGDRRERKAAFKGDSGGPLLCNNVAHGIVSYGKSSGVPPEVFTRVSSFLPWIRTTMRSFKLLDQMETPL
Chain of Polyunsaturated fatty acid lipoxygenase ALOX15 (Homo sapiens) (P16050 whole entry): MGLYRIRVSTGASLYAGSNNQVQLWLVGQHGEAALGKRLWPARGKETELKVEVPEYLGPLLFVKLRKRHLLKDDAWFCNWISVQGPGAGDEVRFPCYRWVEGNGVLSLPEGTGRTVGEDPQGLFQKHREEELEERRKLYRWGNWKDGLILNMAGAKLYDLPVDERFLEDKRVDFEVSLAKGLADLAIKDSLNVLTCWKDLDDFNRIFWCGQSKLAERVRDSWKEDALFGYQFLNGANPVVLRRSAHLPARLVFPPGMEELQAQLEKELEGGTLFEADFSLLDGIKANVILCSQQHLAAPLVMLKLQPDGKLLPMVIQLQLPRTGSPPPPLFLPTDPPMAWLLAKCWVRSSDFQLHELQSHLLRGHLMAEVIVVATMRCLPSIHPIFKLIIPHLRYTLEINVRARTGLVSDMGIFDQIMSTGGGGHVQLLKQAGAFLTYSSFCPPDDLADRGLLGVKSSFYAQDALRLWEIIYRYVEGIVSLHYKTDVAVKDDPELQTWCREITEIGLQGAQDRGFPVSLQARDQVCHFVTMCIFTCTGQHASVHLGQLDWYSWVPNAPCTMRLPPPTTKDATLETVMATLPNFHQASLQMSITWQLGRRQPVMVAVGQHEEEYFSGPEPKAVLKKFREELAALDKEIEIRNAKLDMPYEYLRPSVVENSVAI

As for `O=c1n(Cc2cncn2-c2cccc(Cl)c2)nc(-c2ccc(Cl)cc2)n1C[C@H](O)C(F)(F)F`, the inhibition at Vasopressin V2 receptor was 29%; in assay [1], 4.92%; in assay [2], -0.44%; in assay [3] it was -2.17%; in the assay filed under Homo sapiens [4] it was -5%; in [5], -3.62%. In addition, the inhibition in assay [6] was -5.3%; in assay [7] it was -3.39%; in [8] it was -4.87%; in assay [9] it was -6%.

With `C[C@H](O)c1nc(Cn2nc(-c3ccc(Cl)cc3)n(C[C@H](O)C(F)(F)F)c2=O)nn1-c1cccc(Cl)c1` [PECAVAPTAN], the inhibition was -2% in assay [10]; -1% in the assay listed under Homo sapiens [11]; -8.52% in assay [12]; 20% in assay [13]; 0% in [14]; 4% in assay [15]. The inhibition in assay [16] was -7%; in [17], -6%; in assay [18], -2%; in assay [19] it was -4.83%; in assay [20] it was -9.01%; in assay [22], 15%. The inhibition in [23] was 21%; in [24], 23%; in assay [26], -4.87%; in assay [27], -6%. In [21], the Ki stood at 2.61 µM. The pKi in assay [21] is 5.58. Besides, the inhibition at 10 µM in assay [25] is reported as 5% (not active).

Broadly, the inhibition is the relative decrease from the control value, in per cent. Broadly, the Ki is the dissociation constant of the complex between target and ligand, obtained from inhibition or displacement. The pKi is the negative decadic logarithm of the Ki, by convention in mol/L.
